Measurements reported in patent US20260000766A1, “ULTRASOUND OPTOGENETIC COMPOSITIONS AND METHODS” (BOARD OF REGENTS, THE UNIVERSITY OF TEXAS SYSTEM, priority 2022, published 2026).

Assay: Fluorescence spectrum tests of L012 at different pH and H2O2 concentration
Type: physicochemical
Description: The fluorescence spectrum tests of L012 at different pH and H2O2 concentration. the quantum yield of the L012 solution at different Ph was investigated. 1 mL L012 solution (0.5 mg/mL) with pH 7.4, 8.5, and 10.0 was mixed with H2O2, where the final concentration of H2O2 was 250 μM. The fluorescence spectrum was recorded via Fluorolog3 Fluorometer. In addition, we also investigated the quantum yield of the L012 solution with different H2O2 concentrations at pH 7.4. 1 mL L012 solution (0.5 mg/mL) with different H2O2 concentrations (50, 250, and 500 μM) at pH 7.4 was prepared at first, and the fluorescence spectrum was also recorded via Fluorolog3 Fluorometer.

For `Nc1c(-c2ccccc2)nc(Cl)c2c([O-])n[nH]c(=O)c12.[Na+]` [L012, L012 sodium salt], the “improvement of fluorescence intensity” value (H2O2 concentration increased from 50 to 500 μM) was “around four” and the “increase of fluorescence intensity” value (pH changed from 7.4 to 10) was “around 30%”.
